Each structure is given as a SMILES string.

The values that follow come from US20240043420A1, “7-AZAINDOLE COMPOUNDS FOR INHIBITION OF BCR-ABL TYROSINE KINASES” (EnLiven Therapeutics, Inc., priority 2020, published 2024).

One assay relates to pCRKL in K562 cells. As to the kind of experiment: pCRKL ELISA assay in K562 cells. To be noted: Homo sapiens, 1.5 h, 90 minutes incubation, read-out: PCRKL ELISA, Cell Line IC50 (nM) K562. The format is cell-based. Here is the method: K562 or Ba/F3 ABL T315I cells (2.0*10^5 cells/100 μl/well) were seeded in 96 well (Corning, cat #3799). Compounds were dissolved in DMSO, serially diluted in DMSO and then were added, mixed, and incubated for 90 minutes at 37° C., 5% CO2. Following the 90-minute incubation, plates were centrifuged for 5 min at 3000 RPM and supernatant was removed from each well. Cells were washed 3 times with 150 μl PBS prior to addition of 100 μl cell RIPA lysis buffer (Boston BioProducts, cat #BP-115D) supplied with 1×complete ULTRA cocktail inhibitor (Roche, 05892791001) and 1×PhosSTOP Phosphatase Inhibitor Cocktail Tablets (Roche, 04906837001). Cells were incubated with lysis buffer for 1 hour at 4° C. prior to storage at −80 C.
A capture antibody able to detect phosphorylated and non-phosphorylated CRKL (R&D Systems, cat #AF5127) was added to Meso Scale Discovery (MSD) standard bind plates (MSD, cat #L15XA-3) at 5 ug/mL and incubated at 4° C. overnight. The next day, plates were washed with PBS+0.05% Tween20 (PBST) and 150 μl of 5% BSA blocking solution was added for 1 hour at room temperature with shaking. Plates were washed with PBST. Lysates were thawed and 30 μl of lysate was added to the MSD plates and incubated for 2 hours at room temperature with shaking. MSD plates were washed with PBST and 30 μl of a detection antibody that binds phosphorylated pCRKL (R&D Systems, cat #MAB6910) was added at 1 μg/mL to each well. Plates were incubated for 1 hour at room temperature with shaking. Plates were washed with PBST prior to addition of 30 μl of a sulfo tagged goat anti mouse detection antibody (MSD cat #R32AC-1). Plates were incubated for 1 hour at room temperature with shaking. Plates were washed with PBST prior to addition of 150 ul of 1×MSD read buffer T (MSD, cat 4R92TC-2). Electrochemiluminescence (ECLU) was read on an MSD plate reader (Meso Scale Discovery). The remaining activity by calculated as follows: 00 Relative activity=100×(ELCUsample−ECLULC)/(ECLUHC−ECLULC). The low and high controls (LC/HC) are generated from lysate from wells without cells or with cells treated with 0.1% DMSO, respectively. IC50 values were calculated using XLFit software using a nonlinear regression model with a sigmoidal dose response and are shown in Table 4 and Table 5 below.
For orientation: An ELISA detects its analyte on a solid surface through an enzyme-linked reagent.

For a further assay, the system named is HL60 cells. Kind of assay: HL60 cell proliferation assay (CellTiter-Glo). To be noted: Homo sapiens, HL-60, 72 h, CellTiter-Glo viability, read-out: Cell Line (IC50, nM) HL60. Type of assay: cell-based. Summed up:
(§1)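 Cells in IMDM/10% FBS seeded at 2,000 (K562) or 1,500 (HL60) per well, exposed to serially diluted compounds for 72 h at 37 °C, 5% CO2. Viability by CellTiter-Glo luminescence, normalized between DMSO (high) and cell-free media (low) controls.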
(In general: In ATP-based viability assays light output follows the ATP content of the culture.)

Another assay concerns the target ABL1 (T315I) (Homo sapiens, UniProt P00519, T315I). Kind of assay: Luminescence-based ABL kinase assay (ADP-Glo, 300 μM ATP), T315I mutant. Type of assay: biochemical. In a few lines: (§2)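 ABL1 (3.325 nM in the enzyme solution) was preincubated with compound for 30 min at RT in HEPES pH 7.5 buffer with MgCl2, EGTA, DTT, BSA and Brij-35. Adding Peptide 2 and ATP (6 μM and 1.2 mM in the start solution) began a 90 min RT reaction. ADP-Glo luminescence gave % activity and IC50.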
A general note: In ADP-Glo the light output rises with the ADP produced.

For the next assay, the target named is T1, ABL1 (Homo sapiens, UniProt P00519).
T1 construct: purchased Carna Biosciences
Kind of assay: Luminescence-based ABL kinase assay (ADP-Glo, 300 μM ATP). The format is biochemical. Summed up:
as §2

The next assay deals with K562 cells. Kind of assay: K562 cell proliferation assay (CellTiter-Glo). The format is cell-based. To be noted: Homo sapiens, K562, 72 h, CellTiter-Glo viability, read-out: Cell Line (IC50, nM) K562. Summed up:
as §1

What is called IC50 is the concentration needed to halve the response being measured. Consider `COc1c(-c2c[nH]c3nc(NC(=O)C4CC4)ccc23)ccc2[nH]cnc12` [Compound 15, N-[3-(4-methoxy-1H-1,3-benzodiazol-5-yl)-1H-pyrrolo[2,3-b]pyridin-6-yl]cyclopropanecarboxamide], for which the IC50 was found to be 468 nM in the assay with pCRKL in K562 cells; 1710 nM with HL60 cells; 2.78 nM against ABL1 (T315I); 12.1 nM on ABL1; 181 nM in the assay on K562 cells.
For `CCOc1ncccc1-c1c[nH]c2nc(NC(=O)[C@@H]3C[C@@H]3F)ccc12` [Compound 62, (1S,2S)—N-(3-(2-ethoxypyridin-3-yl)-1H-pyrrolo[2,3-b]pyridin-6-yl)-2-fluorocyclopropane-1-carboxamide] the same measures were 171 nM, greater than 10000 nM, 43 nM, 20.8 nM and 137 nM.
For `O=C(Nc1ccc2c(-c3ccc4nccn4c3)c[nH]c2n1)C1CC1` [Compound 56, N-(3-(imidazo[1,2-a]pyridin-6-yl)-1H-pyrrolo[2,3-b]pyridin-6-yl)cyclopropanecarboxamide] the same measures were 745 nM, 120 nM, 53.5 nM, 30.3 nM and 183 nM.
In the case of `COc1cc2[nH]ncc2cc1-c1c[nH]c2nc(NC(=O)[C@@H]3C[C@@H]3F)ccc12` [Compound 50, (1S,2S)-2-fluoro-N-[3-(6-methoxy-1H-indazol-5-yl)-1H-pyrrolo[2,3-b]pyridin-6-yl]cyclopropane-1-carboxamide], the IC50 with pCRKL in K562 cells was 151 nM; in the assay with HL60 cells it was greater than 10000 nM; against ABL1 (T315I), 2.51 nM; against ABL1 it was 3.9 nM; in the assay with K562 cells, 120 nM.
For `COc1cc2[nH]cnc2cc1-c1c[nH]c2nc(NC(=O)[C@H]3C[C@H]3F)ccc12` [Compound 52, (1R,2R)-2-fluoro-N-[3-(6-methoxy-1H-1,3-benzodiazol-5-yl)-1H-pyrrolo[2,3-b]pyridin-6-yl]cyclopropane-1-carboxamide] the same measures were 3120 nM, greater than 10000 nM, 13.7 nM, 8.95 nM and 829 nM.
For `COc1ccccc1-c1c[nH]c2nc(NC(=O)NCCN3CCN(C)CC3)ccc12` [Compound 42, 3-[3-(2-methoxyphenyl)-1H-pyrrolo[2,3-b]pyridin-6-yl]-1-[2-(4-methylpiperazin-1-yl)ethyl]urea] the same measures were 88.3 nM, greater than 10000 nM, 12.7 nM, 45.4 nM and 254 nM.
Taken in the same sequence, the figures for `COc1ncccc1-c1n[nH]c2nc(NC(=O)[C@@H]3C[C@@H]3F)ccc12` [Compound 77, (1S,2S)-2-fluoro-N-[3-(2-methoxypyridin-3-yl)-1H-pyrazolo[3,4-b]pyridin-6-yl]cyclopropane-1-carboxamide] were 1120 nM, greater than 10000 nM, 137 nM, 106 nM and 727 nM.
As for `COc1cc2[nH]ncc2cc1-c1n[nH]c2nc(NC(=O)[C@@H]3C[C@@H]3F)ccc12` [Compound 82, (1S,2S)-2-fluoro-N-[3-(6-methoxy-1H-indazol-5-yl)-1H-pyrazolo[3,4-b]pyridin-6-yl]cyclopropane-1-carboxamide], the concentration for half-maximal inhibition (IC50) with pCRKL in K562 cells was 1050 nM; with HL60 cells it was greater than 10000 nM; against ABL1 (T315I), 20.5 nM; against ABL1 it was 13.5 nM; in the assay with K562 cells, 437 nM.
Turning to `COc1cccc(F)c1-c1n[nH]c2nc(NC(=O)[C@@H]3C[C@@H]3F)ccc12` [Compound 66, (1S,2S)-2-fluoro-N-[3-(2-fluoro-6-methoxyphenyl)-1H-pyrazolo[3,4-b]pyridin-6-yl]cyclopropane-1-carboxamide], the IC50 with pCRKL in K562 cells is 702 nM; with HL60 cells, greater than 10000 nM; against ABL1 (T315I) it was 38.7 nM; against ABL1, 91.5 nM; with K562 cells it was 603 nM.
Turning to `COc1cc2[nH]ncc2cc1-c1c[nH]c2nc(NC(=O)[C@H]3C[C@H]3F)ccc12` [Compound 53, (1R,2R)-2-fluoro-N-[3-(6-methoxy-1H-indazol-5-yl)-1H-pyrrolo[2,3-b]pyridin-6-yl]cyclopropane-1-carboxamide], the IC50 in the assay with pCRKL in K562 cells was 584 nM; with HL60 cells it was 3110 nM; against ABL1 (T315I), 5.63 nM; against ABL1, 6.92 nM; in the assay on K562 cells, 267 nM.
Taken in the same sequence, the figures for `COc1ncccc1-c1c[nH]c2nc(NC(=O)[C@H]3C[C@H]3F)ccc12` [Compound 26, (1R,2R)-2-fluoro-N-(3-(2-methoxypyridin-3-yl)-1H-pyrrolo[2,3-b]pyridin-6-yl)cyclopropane-1-carboxamide] were 680 nM, greater than 10000 nM, 68.4 nM, 62.9 nM and 220 nM.
Taken in the same sequence, the figures for `CCOc1ncccc1-c1c[nH]c2nc(NC(=O)C3CC3)ccc12` [Compound 47, N-[3-(2-ethoxypyridin-3-yl)-1H-pyrrolo[2,3-b]pyridin-6-yl]cyclopropanecarboxamide] were 685 nM, greater than 10000 nM, 0.705 nM, 7.47 nM and 292 nM.
For `COc1ccccc1-c1c[nH]c2nc(NC(=O)[C@@H]3C[C@@H]3F)ccc12` [Compound 3, (1S,2S)-2-fluoro-N-(3-(2-methoxyphenyl)-1H-pyrrolo[2,3-b]pyridin-6-yl)cyclopropane-1-carboxamide] the same measures were 174 nM, greater than 10000 nM, 0.896 nM, 8.17 nM and 80.3 nM.
As to `COc1cc2cn[nH]c2cc1-c1c[nH]c2nc(NC(=O)[C@@H]3C[C@@H]3F)ccc12` [Compound 58, (1S,2S)-2-fluoro-N-[3-(5-methoxy-1H-indazol-6-yl)-1H-pyrrolo[2,3-b]pyridin-6-yl]cyclopropane-1-carboxamide], the half-inhibitory concentration (IC50) was 281 nM with pCRKL in K562 cells; greater than 10000 nM in the assay with HL60 cells; 3.4 nM at ABL1 (T315I); 2.92 nM against ABL1; 132 nM with K562 cells.
Taken in the same sequence, the figures for `CCOc1ncccc1-c1c[nH]c2nc(NC(=O)[C@H]3C[C@H]3F)ccc12` [Compound 63, (1R,2R)—N-(3-(2-ethoxypyridin-3-yl)-1H-pyrrolo[2,3-b]pyridin-6-yl)-2-fluorocyclopropane-1-carboxamide] were 328 nM, greater than 10000 nM, 64.5 nM, 40.7 nM and 255 nM.
Taken in the same sequence, the figures for `COc1c(-c2c[nH]c3nc(NC(=O)[C@H]4C[C@H]4F)ccc23)ccc2[nH]cnc12` [Compound 51, (1R,2R)-2-fluoro-N-[3-(4-methoxy-1H-1,3-benzodiazol-5-yl)-1H-pyrrolo[2,3-b]pyridin-6-yl]cyclopropane-1-carboxamide] were 1350 nM, greater than 10000 nM, 4.41 nM, 15.4 nM and 668 nM.
Consider `COc1ncc(F)cc1-c1n[nH]c2nc(NC(=O)[C@@H]3C[C@@H]3F)ccc12` [Compound 74, (1S,2S)-2-fluoro-N-[3-(5-fluoro-2-methoxypyridin-3-yl)-1H-pyrazolo[3,4-b]pyridin-6-yl]cyclopropane-1-carboxamide], for which the IC50 is 572 nM in the assay on pCRKL in K562 cells; greater than 10000 nM with HL60 cells; 63 nM against ABL1 (T315I); 55.6 nM on ABL1; 351 nM in the assay with K562 cells.
